Assay results published in the NIST ThermoML archive (doi:10.1016/j.jct.2011.10.027).

Assay: xn = mol fraction of the nth substance listed
Settings: 101 kPa, Liquid, Vibrating tube method

CCCCN(CCCC)CCCC [tributylamine] + Cc1cccc(C)c1
mass density [kg/m3]
Settings | 293.15 K | 298.15 K | 303.15 K | 313.15 K | 323.15 K | 333.15 K
x1 = 0.0803 | 851.21 | 846.99 | 842.76 | 834.27 | 825.72 | 817.11
x1 = 0.1564 | 840.57 | 836.42 | 832.26 | 823.89 | 815.48 | 806.98
x1 = 0.2405 | 830.31 | 826.21 | 822.11 | 813.87 | 805.59 | 797.24
x1 = 0.3223 | 821.61 | 817.57 | 813.53 | 805.4 | 797.23 | 788.99
x1 = 0.3983 | 814.42 | 810.43 | 806.43 | 798.4 | 790.32 | 782.19
x1 = 0.4784 | 807.64 | 803.69 | 799.74 | 791.81 | 783.83 | 775.79
x1 = 0.5497 | 802.22 | 798.31 | 794.4 | 786.54 | 778.64 | 770.68
x1 = 0.6375 | 796.16 | 792.3 | 788.42 | 780.65 | 772.84 | 764.97
x1 = 0.7175 | 791.21 | 787.38 | 783.55 | 775.85 | 768.1 | 760.32
x1 = 0.7958 | 786.77 | 782.98 | 779.18 | 771.54 | 763.87 | 756.15
x1 = 0.8823 | 782.31 | 778.55 | 774.78 | 767.21 | 759.6 | 751.95
x1 = 0.9616 | 778.58 | 774.84 | 771.1 | 763.6 | 756.05 | 748.45

CCCCN(CCCC)CCCC [tributylamine] + O=[N+]([O-])c1ccccc1
mass density [kg/m3]
Settings | 293.15 K | 298.15 K | 303.15 K | 313.15 K | 323.15 K | 333.15 K
x1 = 0.0806 | 1132.44 | 1127.65 | 1122.87 | 1113.29 | 1103.7 | 1094.1
x1 = 0.1692 | 1068.2 | 1063.58 | 1058.97 | 1049.72 | 1040.46 | 1031.17
x1 = 0.2426 | 1023.24 | 1018.75 | 1014.26 | 1005.27 | 996.24 | 987.2
x1 = 0.3259 | 979.47 | 975.11 | 970.74 | 961.98 | 953.2 | 944.4
x1 = 0.3993 | 945.96 | 941.69 | 937.43 | 928.86 | 920.27 | 911.63
x1 = 0.4829 | 912.69 | 908.52 | 904.33 | 895.96 | 887.56 | 879.12
x1 = 0.5607 | 885.41 | 881.32 | 877.22 | 869.01 | 860.76 | 852.46
x1 = 0.6392 | 861.09 | 857.07 | 853.04 | 844.97 | 836.86 | 828.72
x1 = 0.7176 | 839.19 | 835.25 | 831.29 | 823.36 | 815.4 | 807.4
x1 = 0.7976 | 819.27 | 815.39 | 811.5 | 803.7 | 795.86 | 787.99
x1 = 0.8779 | 801.19 | 797.38 | 793.55 | 785.88 | 778.17 | 770.42
x1 = 0.9546 | 785.56 | 781.8 | 778.03 | 770.48 | 762.89 | 755.25

CCCCN(CCCC)CCCC [tributylamine] + Cc1ccccc1C
mass density [kg/m3]
Settings | 293.15 K | 298.15 K | 303.15 K | 313.15 K | 323.15 K | 333.15 K
x1 = 0.0762 | 865.26 | 861.1 | 856.94 | 848.59 | 840.19 | 831.72
x1 = 0.1611 | 851.26 | 847.17 | 843.07 | 834.83 | 826.55 | 818.19
x1 = 0.2324 | 840.99 | 836.94 | 832.88 | 824.73 | 816.54 | 808.28
x1 = 0.3142 | 830.6 | 826.6 | 822.59 | 814.54 | 806.44 | 798.29
x1 = 0.3986 | 821.15 | 817.19 | 813.22 | 805.26 | 797.25 | 789.19
x1 = 0.481 | 812.95 | 809.03 | 805.1 | 797.21 | 789.28 | 781.29
x1 = 0.5686 | 805.17 | 801.29 | 797.4 | 789.61 | 781.76 | 773.87
x1 = 0.6368 | 799.67 | 795.83 | 791.97 | 784.23 | 776.45 | 768.61
x1 = 0.7145 | 793.98 | 790.16 | 786.34 | 778.66 | 770.94 | 763.17
x1 = 0.769 | 790.27 | 786.47 | 782.67 | 775.03 | 767.36 | 759.64
x1 = 0.8741 | 783.74 | 779.98 | 776.21 | 768.65 | 761.06 | 753.41
x1 = 0.9545 | 779.3 | 775.56 | 771.81 | 764.3 | 756.75 | 749.14

CCCCN(CCCC)CCCC [tributylamine] + Cc1ccccc1
mass density [kg/m3]
Settings | 293.15 K | 298.15 K | 303.15 K | 313.15 K | 323.15 K | 333.15 K
x1 = 0.0818 | 851.2 | 846.71 | 842.2 | 833.14 | 824.01 | 814.79
x1 = 0.1626 | 838.57 | 834.2 | 829.81 | 821 | 812.13 | 803.18
x1 = 0.2401 | 828.4 | 824.14 | 819.86 | 811.26 | 802.6 | 793.86
x1 = 0.3243 | 819.07 | 814.89 | 810.71 | 802.29 | 793.83 | 785.3
x1 = 0.3987 | 811.93 | 807.83 | 803.72 | 795.46 | 787.15 | 778.78
x1 = 0.4789 | 805.28 | 801.25 | 797.2 | 789.08 | 780.92 | 772.69
x1 = 0.5592 | 799.41 | 795.44 | 791.46 | 783.47 | 775.43 | 767.34
x1 = 0.6414 | 794.14 | 790.22 | 786.3 | 778.42 | 770.5 | 762.52
x1 = 0.7238 | 789.42 | 785.56 | 781.69 | 773.92 | 766.11 | 758.24
x1 = 0.7985 | 785.62 | 781.8 | 777.97 | 770.28 | 762.56 | 754.78
x1 = 0.8802 | 781.79 | 778.01 | 774.23 | 766.64 | 759 | 751.31
x1 = 0.8991 | 780.96 | 777.2 | 773.42 | 765.85 | 758.23 | 750.57

CCCCN(CCCC)CCCC [tributylamine] + Cc1ccc(C)cc1
mass density [kg/m3]
Settings | 293.15 K | 298.15 K | 303.15 K | 313.15 K | 323.15 K | 333.15 K
x1 = 0.0834 | 848.23 | 843.97 | 839.71 | 831.14 | 822.53 | 813.86
x1 = 0.1617 | 837.85 | 833.67 | 829.48 | 821.06 | 812.59 | 804.05
x1 = 0.2416 | 828.6 | 824.47 | 820.35 | 812.06 | 803.72 | 795.32
x1 = 0.3196 | 820.59 | 816.53 | 812.46 | 804.29 | 796.06 | 787.79
x1 = 0.3984 | 813.4 | 809.38 | 805.37 | 797.3 | 789.19 | 781.03
x1 = 0.482 | 806.6 | 802.64 | 798.67 | 790.72 | 782.71 | 774.64
x1 = 0.56 | 800.89 | 796.97 | 793.04 | 785.17 | 777.26 | 769.29
x1 = 0.633 | 796.02 | 792.14 | 788.26 | 780.46 | 772.62 | 764.73
x1 = 0.7229 | 790.59 | 786.75 | 782.91 | 775.2 | 767.45 | 759.65
x1 = 0.7717 | 787.86 | 784.05 | 780.24 | 772.57 | 764.86 | 757.1
x1 = 0.878 | 782.45 | 778.68 | 774.9 | 767.33 | 759.71 | 752.04
x1 = 0.9458 | 779.3 | 775.56 | 771.81 | 764.28 | 756.72 | 749.1

CCCCN(CCCC)CCCC [tributylamine] + CCc1ccccc1
mass density [kg/m3]
Settings | 293.15 K | 298.15 K | 303.15 K | 313.15 K | 323.15 K | 333.15 K
x1 = 0.0829 | 852.96 | 848.66 | 844.35 | 835.7 | 827 | 818.22
x1 = 0.1602 | 841.78 | 837.56 | 833.34 | 824.84 | 816.3 | 807.68
x1 = 0.2404 | 831.68 | 827.53 | 823.38 | 815.04 | 806.64 | 798.19
x1 = 0.3189 | 823 | 818.92 | 814.83 | 806.62 | 798.36 | 790.04
x1 = 0.3972 | 815.35 | 811.33 | 807.3 | 799.2 | 791.06 | 782.85
x1 = 0.4788 | 808.26 | 804.3 | 800.32 | 792.33 | 784.3 | 776.21
x1 = 0.572 | 801.08 | 797.17 | 793.25 | 785.37 | 777.45 | 769.48
x1 = 0.6382 | 796.47 | 792.6 | 788.71 | 780.91 | 773.07 | 765.18
x1 = 0.7192 | 791.35 | 787.52 | 783.67 | 775.96 | 768.2 | 760.39
x1 = 0.8022 | 786.64 | 782.83 | 779.02 | 771.38 | 763.69 | 755.96
x1 = 0.8765 | 782.75 | 778.98 | 775.21 | 767.62 | 760 | 752.32
x1 = 0.9556 | 778.92 | 775.18 | 771.44 | 763.92 | 756.36 | 748.76
